Laboratory results: the NIST ThermoML archive (doi:10.1016/j.jct.2010.05.009)
± gives the expanded uncertainty stated by the source.

What was measured:
[1] = 101 kPa, Liquid; for viscosity: Capillary tube (Ostwald / Ubbelohde) method; for mass density: Vibrating tube method
[2] = refractive index (Na D-line) (dimensionless); conditions: 101.33 kPa, Liquid, Standard Abbe refractometry
[3] = refractive index (Na D-line) (dimensionless); xn = mol fraction of the nth substance listed; conditions: 101 kPa, Liquid, Standard Abbe refractometry
[4] = xn = mol fraction of the nth substance listed; conditions: 101 kPa, Liquid; for viscosity: Capillary tube (Ostwald / Ubbelohde) method; for mass density: Vibrating tube method

CCC(C)(C)O [2-methylbutan-2-ol]
Conditions | mass density, 288.15 K [kg/m3] | mass density, 298.15 K [kg/m3] | mass density, 308.15 K [kg/m3] | refractive index, 288.15 K | refractive index, 298.15 K | refractive index, 308.15 K | viscosity, 288.15 K [mPa·s] | viscosity, 298.15 K [mPa·s] | viscosity, 308.15 K [mPa·s]
[1] | 814.01 ± 0.24 | 804.88 ± 0.24 | 795.52 ± 0.24 | – | – | – | 5.867 ± 0.043 | 3.478 ± 0.027 | 2.504 ± 0.019
[2] | – | – | – | 1.4062 ± 0.0004 | 1.4015 ± 0.0004 | 1.3968 ± 0.0004 | – | – | –

CCC(C)(C)O [2-methylbutan-2-ol] + CCCN
x1 = 1
Conditions | mass density, 288.15 K [kg/m3] | mass density, 298.15 K [kg/m3] | mass density, 308.15 K [kg/m3] | refractive index, 288.15 K | refractive index, 298.15 K | refractive index, 308.15 K | viscosity, 288.15 K [mPa·s] | viscosity, 298.15 K [mPa·s] | viscosity, 308.15 K [mPa·s]
[3] | – | – | – | 1.4062 ± 0.0004 | 1.4015 ± 0.0004 | 1.3968 ± 0.0004 | – | – | –
[4] | 814.01 ± 0.24 | 804.88 ± 0.24 | 795.52 ± 0.24 | – | – | – | 5.867 ± 0.043 | 3.478 ± 0.027 | 2.504 ± 0.019

CCCN [propan-1-amine]
Conditions | mass density, 288.15 K [kg/m3] | mass density, 298.15 K [kg/m3] | mass density, 308.15 K [kg/m3] | refractive index, 288.15 K | refractive index, 298.15 K | refractive index, 308.15 K | viscosity, 288.15 K [mPa·s] | viscosity, 298.15 K [mPa·s] | viscosity, 308.15 K [mPa·s]
[1] | 721.57 ± 0.25 | 711.08 ± 0.25 | 700.4 ± 0.25 | – | – | – | 0.3851 ± 0.0034 | 0.3585 ± 0.0033 | 0.3222 ± 0.003
[2] | – | – | – | 1.3899 ± 0.0004 | 1.3844 ± 0.0004 | 1.3784 ± 0.0004 | – | – | –

C1CCOC1 [tetrahydrofuran]
Conditions | mass density, 288.15 K [kg/m3] | mass density, 298.15 K [kg/m3] | mass density, 308.15 K [kg/m3] | refractive index, 288.15 K | refractive index, 298.15 K | refractive index, 308.15 K | viscosity, 288.15 K [mPa·s] | viscosity, 298.15 K [mPa·s] | viscosity, 308.15 K [mPa·s]
[1] | 892.92 ± 0.23 | 882.03 ± 0.24 | 871.01 ± 0.24 | – | – | – | 0.4991 ± 0.0043 | 0.454 ± 0.004 | 0.4172 ± 0.0037
[2] | – | – | – | 1.4086 ± 0.0004 | 1.4037 ± 0.0004 | 1.3987 ± 0.0004 | – | – | –

C1CCOC1 [tetrahydrofuran] + CCC(C)(C)O
x2 = 0
Conditions | mass density, 288.15 K [kg/m3] | mass density, 298.15 K [kg/m3] | mass density, 308.15 K [kg/m3] | refractive index, 288.15 K | refractive index, 298.15 K | refractive index, 308.15 K | viscosity, 288.15 K [mPa·s] | viscosity, 298.15 K [mPa·s] | viscosity, 308.15 K [mPa·s]
[3] | – | – | – | 1.4086 ± 0.0004 | 1.4037 ± 0.0004 | 1.3987 ± 0.0004 | – | – | –
[4] | 892.92 ± 0.23 | 882.03 ± 0.24 | 871.01 ± 0.24 | – | – | – | 0.4991 ± 0.0043 | 0.454 ± 0.004 | 0.4172 ± 0.0037

C1CCOC1 [tetrahydrofuran] + CCCN
x1 = 1
Conditions | mass density, 288.15 K [kg/m3] | mass density, 298.15 K [kg/m3] | mass density, 308.15 K [kg/m3] | refractive index, 288.15 K | refractive index, 298.15 K | refractive index, 308.15 K | viscosity, 288.15 K [mPa·s] | viscosity, 298.15 K [mPa·s] | viscosity, 308.15 K [mPa·s]
[3] | – | – | – | 1.4086 ± 0.0004 | 1.4037 ± 0.0004 | 1.3987 ± 0.0004 | – | – | –
[4] | 892.92 ± 0.23 | 882.03 ± 0.24 | 871.01 ± 0.24 | – | – | – | 0.4991 ± 0.0043 | 0.454 ± 0.004 | 0.4172 ± 0.0037
